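Step 1: Grow cells in 96-well plates. Step 2: Expose to compound for 48 hours at 5 concentrations. Step 3: Interpolate endpoints linearly; if unreached, use highest concentration. GI50 is the concentration that inhibits growth by half.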 Activity calls are given as the source filed them. No stated cut-off is given here; in the data, active = GI50 up to about 1.1 µM and inactive = higher.
Tests used:
Experiment in all cases: NCI anticancer screen, dose series, 48 h
786-0 = system: 786-0
A549 = system: A549
ACHN = system: ACHN
BT-549 = system: BT-549
CAKI-1 = system: CAKI-1
CCRF-CEM = system: CCRF-CEM
COLO 205 = system: COLO 205
DU-145 = system: DU-145
EKVX = system: EKVX
HCC 2998 = system: HCC 2998
HCT-116 = system: HCT-116
HCT-15 = system: HCT-15
HL-60 = system: HL-60
HOP-62 = system: HOP-62
HOP-92 = system: HOP-92
HT-29 = system: HT-29
Hs-578T = system: Hs-578T
IGROV-1 = system: IGROV-1
K562 = system: K562
KM12 = system: KM12
LOX IMVI = system: LOX IMVI
M14 = system: M14
MCF7 = system: MCF7
MDA-MB-231 = system: MDA-MB-231
MDA-MB-435 = system: MDA-MB-435
MDA-N = system: MDA-N
MOLT-4 = system: MOLT-4
Malme-3M = system: Malme-3M
NCI-H226 = system: NCI-H226
NCI-H23 = system: NCI-H23
NCI-H460 = system: NCI-H460
NCI-H522 = system: NCI-H522
NCI/ADR-RES = system: NCI/ADR-RES
OVCAR-3 = system: OVCAR-3
OVCAR-4 = system: OVCAR-4
OVCAR-5 = system: OVCAR-5
OVCAR-8 = system: OVCAR-8
PC-3 = system: PC-3
RPMI-8226 = system: RPMI-8226
RXF 393 = system: RXF 393
SF-268 = system: SF-268
SF-295 = system: SF-295
SK-MEL-28 = system: SK-MEL-28
SK-MEL-2 = system: SK-MEL-2
SK-MEL-5 = system: SK-MEL-5
SK-OV-3 = system: SK-OV-3
SN12C = system: SN12C
SNB-19 = system: SNB-19
SNB-75 = system: SNB-75
SR = system: SR
SW-620 = system: SW-620
T47D = system: T47D
TK-10 = system: TK-10
U-251 = system: U-251
UACC-257 = system: UACC-257
UACC-62 = system: UACC-62
UO-31 = system: UO-31
A498 = system: A498
SF-539 = system: SF-539

COc1ccc(-c2cc3c(c4cc(OC)ccc24)C(=O)OC3=O)cc1
GI50 (786-0): > 100 µM (inactive) | GI50 (A549): > 100 µM (inactive) | GI50 (ACHN): > 100 µM (inactive) | GI50 (BT-549): > 100 µM (inactive) | GI50 (CAKI-1): > 100 µM (inactive) | GI50 (CCRF-CEM): > 100 µM (inactive) | GI50 (COLO 205): > 100 µM (inactive) | GI50 (DU-145): > 100 µM (inactive) | GI50 (EKVX): > 100 µM (inactive) | GI50 (HCC 2998): > 100 µM (inactive) | GI50 (HCT-116): > 100 µM (inactive) | GI50 (HCT-15): > 100 µM | GI50 (HL-60): > 100 µM (inactive) | GI50 (HOP-62): > 100 µM (inactive) | GI50 (HOP-92): 87.3 µM (inactive) | GI50 (HT-29): > 100 µM (inactive) | GI50 (Hs-578T): > 100 µM (inactive) | GI50 (IGROV-1): > 100 µM (inactive) | GI50 (K562): > 100 µM (inactive) | GI50 (KM12): > 100 µM (inactive) | GI50 (LOX IMVI): > 100 µM (inactive) | GI50 (M14): > 100 µM (inactive) | GI50 (MCF7): > 100 µM (inactive) | GI50 (MDA-MB-231): > 100 µM (inactive) | GI50 (MDA-MB-435): 68.4 µM (inactive) | GI50 (MDA-N): 86.5 µM (inactive) | GI50 (MOLT-4): > 100 µM (inactive) | GI50 (Malme-3M): > 100 µM (inactive) | GI50 (NCI-H226): > 100 µM (inactive) | GI50 (NCI-H23): > 100 µM (inactive) | GI50 (NCI-H460): > 100 µM (inactive) | GI50 (NCI-H522): > 100 µM (inactive) | GI50 (NCI/ADR-RES): > 100 µM (inactive) | GI50 (OVCAR-3): > 100 µM (inactive) | GI50 (OVCAR-4): > 100 µM (inactive) | GI50 (OVCAR-5): > 100 µM (inactive) | GI50 (OVCAR-8): > 100 µM (inactive) | GI50 (PC-3): > 100 µM (inactive) | GI50 (RPMI-8226): > 100 µM (inactive) | GI50 (RXF 393): > 100 µM (inactive) | GI50 (SF-268): > 100 µM (inactive) | GI50 (SF-295): > 100 µM (inactive) | GI50 (SK-MEL-28): > 100 µM (inactive) | GI50 (SK-MEL-2): > 100 µM (inactive) | GI50 (SK-MEL-5): > 100 µM (inactive) | GI50 (SK-OV-3): > 100 µM (inactive) | GI50 (SN12C): > 100 µM (inactive) | GI50 (SNB-19): > 100 µM (inactive) | GI50 (SNB-75): 68.1 µM (inactive) | GI50 (SR): > 100 µM (inactive) | GI50 (SW-620): > 100 µM (inactive) | GI50 (T47D): > 100 µM (inactive) | GI50 (TK-10): > 100 µM (inactive) | GI50 (U-251): > 100 µM (inactive) | GI50 (UACC-257): > 100 µM (inactive) | GI50 (UACC-62): > 100 µM (inactive) | GI50 (UO-31): 95.5 µM (inactive)

Cc1nnc2ccccc2c1O
GI50 (786-0): > 100 µM (inactive) | GI50 (A498): > 100 µM (inactive) | GI50 (A549): > 100 µM (inactive) | GI50 (ACHN): > 100 µM (inactive) | GI50 (BT-549): > 100 µM (inactive) | GI50 (CAKI-1): > 100 µM (inactive) | GI50 (COLO 205): > 100 µM (inactive) | GI50 (DU-145): > 100 µM (inactive) | GI50 (EKVX): > 100 µM (inactive) | GI50 (HCT-116): > 100 µM (inactive) | GI50 (HCT-15): > 100 µM | GI50 (HOP-62): > 100 µM (inactive) | GI50 (HOP-92): > 100 µM (inactive) | GI50 (HT-29): > 100 µM (inactive) | GI50 (Hs-578T): > 100 µM (inactive) | GI50 (IGROV-1): > 100 µM (inactive) | GI50 (K562): 2.52 µM (inactive) | GI50 (KM12): > 100 µM (inactive) | GI50 (LOX IMVI): > 100 µM (inactive) | GI50 (M14): > 100 µM (inactive) | GI50 (MCF7): > 100 µM (inactive) | GI50 (MDA-MB-231): > 100 µM (inactive) | GI50 (MDA-MB-435): > 100 µM (inactive) | GI50 (MDA-N): > 100 µM (inactive) | GI50 (MOLT-4): 6.34 µM (inactive) | GI50 (Malme-3M): > 100 µM (inactive) | GI50 (NCI-H226): > 100 µM (inactive) | GI50 (NCI-H23): > 100 µM (inactive) | GI50 (NCI-H460): > 100 µM (inactive) | GI50 (NCI-H522): > 100 µM (inactive) | GI50 (NCI/ADR-RES): > 100 µM (inactive) | GI50 (OVCAR-3): > 100 µM (inactive) | GI50 (OVCAR-4): > 100 µM (inactive) | GI50 (OVCAR-5): > 100 µM (inactive) | GI50 (OVCAR-8): > 100 µM (inactive) | GI50 (PC-3): > 100 µM (inactive) | GI50 (RPMI-8226): > 100 µM (inactive) | GI50 (RXF 393): > 100 µM (inactive) | GI50 (SF-268): > 100 µM (inactive) | GI50 (SF-295): > 100 µM (inactive) | GI50 (SF-539): > 100 µM (inactive) | GI50 (SK-MEL-28): > 100 µM (inactive) | GI50 (SK-MEL-2): > 100 µM (inactive) | GI50 (SK-MEL-5): > 100 µM (inactive) | GI50 (SK-OV-3): > 100 µM (inactive) | GI50 (SN12C): > 100 µM (inactive) | GI50 (SNB-19): > 100 µM (inactive) | GI50 (SNB-75): > 100 µM (inactive) | GI50 (SR): 25.9 µM (inactive) | GI50 (SW-620): > 100 µM (inactive) | GI50 (T47D): > 100 µM (inactive) | GI50 (TK-10): > 100 µM (inactive) | GI50 (U-251): > 100 µM (inactive) | GI50 (UACC-257): > 100 µM (inactive) | GI50 (UACC-62): > 100 µM (inactive) | GI50 (UO-31): > 100 µM (inactive)

From ChEMBL document CHEMBL1201862, “PubChem BioAssay data set” (2004)
